Key:
vascular ring = experiment: Vessel ring bioassay of SNO-Hb preparations, with or without glutathione
Description: Arterial red blood cells contain two physiologically important forms of hemoglobin: Hb(FeII)O2 and Hb(FeIII) (Antonini et al. (1971)). […] Such findings raise the possibility of functional consequences, perhaps influenced by the redox state of heme and its occupation by ligand.
Details of the vessel ring bioassay have been published (Stamler, J. S., et al., Proc. Natl. Acad. Sci. USA 89:444-448 (1992)). SNO-Hb(FeII)O2 preparations were synthesized with 10-fold excess S-nitrosocysteine (CYSNO) over Hb(FeII)O2 protein (2% borate, 0.5 mM EDTA, ˜15 min incubation), after which desalting was performed across Sephadex G-25 columns. CYSNO was synthesized in 0.5 N HCl, 0.5 mM EDTA and then neutralized (1:1) in 1 M phosphate buffer containing 0.5 mM EDTA. […] The latter was synthesized by treatment of Hb(FeII)O2 with excess ferricyanide, followed by desalting across G-25 columns. SNO-Hb concentrations were verified spectroscopically and the S-nitrosothiol content was determined by the method of Saville (Stamler, J. S., et al., Proc. Nat. Acad. Sci. USA 89:444-448 (1992)). The S-NO/tetramer stoichiometry for both SNO-Hb preparations was ˜2. Oxidation of the heme was undetectable by uv-spectrophotometric methods.

Sprague-Dawley rat = experiment: Mean arterial pressure after femoral vein bolus of cell-free Hb and SNO-Hbs; format: in vivo; conditions: bolus, femoral vein, anesthetized rat
Description: Systemic administration of cell-free Hb results in hypertensive responses which have been attributed to NO scavenging by the heme (Vogel, W. M., et al., Am. J. Physiol. 251:H413-H420 (1986); Olsen, S. B., et al., Circulation 93:329-332 (1996)). To determine if SNO-Hb is free of this adverse affect, and to explore if in vitro mechanisms of NO release extend to the in vivo circumstance, we compared responses to Hb and SNO-Hb infused as a bolus into the femoral vein of anesthetized rats. […] Thus, the profiles of these compounds in vivo closely resemble those seen in vitro (FIG. 4A). […] These changes in mean blood pressure of ˜10% are on the order of those that differentiate normotension from hypertension in man, and in the therapeutic range of some antihypertensive regimens. […] The bioactivity of SNO-Hb in blood, where S—NO/heme stoichiometries approach 1:50,000, is a dramatic illustration of the resistence of this NO-related activity to Hb(Fe) inactivation.
Administration of 2-200 nmol/kg Hb(FeII)O2 (as a bolus) into the femoral vein of a Sprague-Dawley rat is shown to increase mean arterial pressure in a dose-dependent manner. At 200 nmol/kg, mean arterial pressure increased by 25 mm Hg (20±3 mm Hg; n=4; P<0.05). Elevations in blood pressure reversed within 10-15 min. SNO-Hb(FeII)O2 infusions (over the same dose range) are shown to ameliorate Hb(FeII)O2-induced hypertension without causing overt changes in blood pressure. […] A fall in blood pressure was also seen with injection of erythrocytes containing SNO-Hb.
Rats were anesthetized by intraperitoneal injection of pentobarbital and the femoral arteries and veins accessed by local cut down. The artery was then cannulated and the blood pressure monitored continuously using a Viggo Spectramed pressure transducer attached to a Gould recorder. An IBM PC (DATA Q Codas) was used for data acquisition.

[1] = system: rabbit thoracic aorta rings; experiment: Oxygen-dependent rabbit aortic ring bioassay of Hb, SNO-Hb, GSNO and SNO-RBCs
[2] = system: rabbit thoracic aorta rings; experiment: Rabbit aortic ring bioassay: native and blocked Hb preparations, vessel tone and ACh (EDRF) relaxation; conditions: 1 μM
Description: Hb-mediated inhibition of endothelium-dependent relaxations is commonly used as a marker of NO responses. Inasmuch as reactions with either metal or thiol centers of Hb should lead to attenuated NO/EDRF (endothelium-derived relaxing factor) responses, we attempted to elucidate the molecular basis of inhibition. Hb preparations in which β93 thiol groups had been blocked with N-ethylmaleimide (NEM) or the hemes blocked by cyanmet (FeIIICN)-derivitization were studied in an aortic ring bioassay, and their activities compared with that of native Hb. Both cyanmet-Hb and NEM-Hb caused increases in vessel tone and attenuated acetylcholine (EDRF)-mediated relaxations (FIG. 3B). […] To verify formation of an S-nitrosothiol in Hb, we established a bioassay in which 2 cm segments of thoracic aorta were interposed in Tygon tubing, through which 3 cc of Krebs solution containing Hb (4 μM) and ACh (2 μM) were circulated by roller pump (1.5 cc/min×5 min).
The effects of native Hb on EDRF responses were compared with Hb preparations in which the thiol or heme centers had been blocked by alkylation or cyanmet derivitization, respectively. All preparations of Hb elicited contractions; however, those of native Hb (in which both SH and metal centers are free for interaction) were most pronounced. […] Relaxations were inhibited to lesser degrees by cyanmet Hb (CN-Hb)(in which hemes were blocked from reaction) and NEM-Hb (in which thiol groups were alkylated by N-ethylmaleimide). […] Direct measurement of SNO-Hb, formed from EDRF under similar conditions, is described in Example 8.
Descending rabbit thoracic aorta were cut into 3 mm rings and mounted on stirrups attached to force transducers (model FT03, Grass Instruments, Quincy, Mass.) for measurement of isometric tone. The details of this bioassay system have been previously described (Stamler, J. S., et al., Proc. Natl. Acad. Sci. USA 89:444-448 (1992)). Cyanmet Hb was prepared from human HbA according to published protocols (Kilbourn, R. G. et al. Biochem. Biophy. Res. Comm. 199:155-162, (1994)). Alkylation of HbA with N-ethylmaleimide was followed by desalting across G-25 Sephadex to remove excess NEM. Removal of unmodified Hbcysβ93 was achieved by passage through Hg-containing affinity columns. The alkylation of free SH groups was verified using 5,5′-dithio-bis[2-nitrobenzoic acid].

rat red blood cells = experiment: S-nitrosylation of intraerythrocytic Hb (loading of red blood cells); format: cell-based; conditions: for formation of intraerythrocytic SNO-Hb: oxygenated rat red blood cells
Protocol: Given that Hb is largely contained within red blood cells, potential mechanisms by which S-nitrosylation of intracellular protein might occur were explored. […] Rapid oxidation of Hb was not observed under these conditions. […] Thus, erythrocyte access of RSNOs is thiol group specific.
Incubation of rat erythrocytes with S-nitrosocysteine (equimolar to heme (5 mM); phosphate buffer pH 7.4, 25° C.) leads to rapid formation of intracellular SNO-Hb(FeII)O2. […] By 60 min, 3 of the 4 available SH groups of Hb are S-nitrosylated (note that rat Hb contains 4 reactive SH groups). […] Spectrum A is that of SNO-Hb isolated from erythrocytes following G-25 chromatography. Treatment of A with dithionite results in reduction of the S—NO moiety, liberating free NO which is autocaptured by deoxy Hb, forming Hb(FeII)NO (note that dithionite simultaneously deoxygenates Hb) (spectrum C). […] The spectrum of Hb(FeII)NO containing 4 NO's per tetramer is shown for comparison (inset, spectrum B).
At shown intervals, red blood cells were pelleted rapidly by centrifugation, washed three times, lysed in deionized water at 4° C., and the cytosolic fraction subjected to rapid desalting across G-25 columns. Intracellular SNO-Hb was measured by the method of Saville (Gaston, B., et al., (1992); Stamler, J. S., et al., Proc. Natl. Acad. Sci. USA, 89:444-448 (1992)), and confirmed spectroscopically (inset of FIG. 3A) as described above.

Sprague-Dawley rats = experiment: Local cerebral blood flow by H2-sensitive microelectrodes; format: in vivo, rat; conditions: 1 μmol/kg infused over 3 minutes
Protocol: Adult male Sprague-Dawley rats (290-350 g) were anesthetized with sodium pentobarbital (50 mg/kg IP), intubated and ventilated with a small animal respirator (Edco Scientific Inc., Chapel Hill, N.C.) at a rate and tidal volume to maintain normal values of PaCO2 (35-45 mm Hg; PaCO2=systemic arterial blood carbon dioxide tension). The femoral vein and artery were cannulated for infusion of drugs and for continuous monitoring of systemic blood pressure, respectively. Aliquots of arterial blood (200 μl) were drawn periodically to measure blood gas tensions and pH (Instrumentation Laboratory Co., model 1304 blood gas/pH analyzer). The blood was replaced intravenously with three volumes of normal saline. The inspired O2 concentration was varied using premixed gases balanced with nitrogen. The tissue PO2 was measured continuously with polarographic platinum microelectrodes (50 μm O.D. coated with hydrophobic gas permeable Nafion) implanted stereotaxically in both the right and left hippocampus (AP−3.4 mm, ML+2.2 mm), caudate putamen nucleus and substantia nigra (see coordinates below) (Young, W., Stroke, 11:552-564 (1980); Heiss, W. D. and Traupett, H., Stroke, 12:161-167 (1981); Dewhirst, M. W. et al., Cancer Res., 54:3333-3336 (1994); Kerger, H. et al., Am. J. Physiol., 268:H802-H810 (1995)). The PO2 electrodes were polarized to −0.65V against a distant Ag/AgCl reference located on the tail and the current flow was measured using a low-impedance nA-meter. Regional arterial PO2 was adjusted by changing the inspired O2 concentration and atmospheric pressure.
Polarographic hydrogen (H2)-sensitive microelectrodes were implanted stereotaxically in the substantia nigra (AP −5.3 mm, ML −2.4 mm to the bregma, depth 3.2 mm), caudate putamen nucleus (CPN) (AP +0.8 mm, ML −2.5 mm, depth 5.2 mm) and parietal cortex, for measurement of regional blood flow (Young, W., Stroke, 11:552-564 (1980); Heiss, W. D. and Traupett, H., Stroke, 12:161-167 (1981)). The microelectrodes were made from platinum wire and insulated with epoxy, with the exception of the tip (1 mm) which was coated with Nafion. For placement, the electrodes were mounted on a micromanipulator and the rat's head was immobilized in a Kopf stereotaxic frame. H2-sensitive electrodes were polarized to +400 mV against a distant reference electrode on the tail, and the polarographic current was measured using a low-impedance nA meter during and after the inhalation of hydrogen gas (2.5%) for 1 min. Both the hydrogen clearance curves and voltage for oxygen measurements were made using PC WINDAQ (software, DI-200 AC, Dataq Instruments, Inc., Akron, Ohio). Cerebral blood flow was calculated using the initial slope method (Young, W., Stroke, 11:552-564 (1980); Heiss, W. D. and Traupett, H., Stroke, 12:161-167 (1981)). Regional blood flow responses were monitored for 30 min. prior to and 30 min. following drug administration; hemoglobins were given at time 0.
The cerebrovascular effects of SNO-Hb were measured in adult male Sprague-Dawley rats using O2 and H2 (blood flow)-sensitive microelectrodes that were placed stereotaxically in several regions of the brain as for Example 11.
Comparative effects of SNO-Hb (●) and Hb (▪) (1 μmol/kg infused over 3 minutes) on local blood flow in substantia nigra (SN), caudate putamen nucleus, and parietal cortex are shown for three different conditions. […] Baseline blood flow was decreased by ˜10% under 100% O2+3 ATA as compared to 100% O2. n=7 for all data points. Values of tissue/microvascular PO2 ranged from 19-37 mm Hg in 21% O2; from 68-138 mm Hg in 100% O2; and from 365-538 mm Hg in 100%+3 ATA (Duke University Medical Center Hyperbaric Chambers).

Row | Molecule | % ACh RELAXATION [2] | % INCREASE IN TENSION [2] | formation of intraerythrocytic SNO-Hb (rat red blood cells) | further results
1 | SNO-Hb(FeII)O2: S-nitroso-oxyhemoglobin |  |  |  | effect of added glutathione on the dose-response (vascular ring; glutathione 100 μM in bioassay chambers): potentiates the dose-response; activity in vascular ring bioassay (vascular ring; no glutathione): modest NO-like activity; blood pressure response (Sprague-Dawley rat): did not exhibit hypertensive effects
2 | deoxyHb: deoxygenated hemoglobin [reference compound] |  |  |  | effect on vessel tone in T-structure ([1]; <1% O2 (˜6 torr)): powerful contractile agent
3 | NEM-Hb: Hb in which thiol groups were alkylated by N-ethylmaleimide | 60.5 ± 3.9 (n = 7) % | 29.4 ± 1.3 (n = 7) % |  | 
4 | CN-Hb: cyanmet Hb, in which hemes were blocked from reaction | 80.7 ± 1.0 † (n = 4) % | 12.9 ± 3.0 (n = 6) % |  | 
5 | N[C@@H](CCSN=O)C(=O)O [S-nitrosohomocysteine] |  |  | Intraerythrocytic SNO-Hb also formed | 
6 | Hb: native cell-free human hemoglobin purified from red cells [reference compound] | 31.9 ± 6.9 (n = 7) % | 40.8 ± 2.3 (n = 7) % |  | local cerebral blood flow (Sprague-Dawley rats; 21% O2): decreased local blood flow; local cerebral blood flow (Sprague-Dawley rats; 100% O2): decrease in flow was preserved; local cerebral blood flow (Sprague-Dawley rats; 100% O2+3 ATA): tended to decrease cerebral flow to similar extents; effect on tone of rings contracted with phenylephrine under hypoxia ([1]; 1 μM, 6-7 torr): progressive increases in vessel tone
7 | [N]=O [NO, nitric oxide, reference compound] |  |  | primarily in metHb formation | 
8 | N[C@@H](CSN=O)C(=O)NCC(=O)O [S-nitrosocysteinylglycine] |  |  | Intraerythrocytic SNO-Hb also formed | 
9 | CC(=O)OCC[N+](C)(C)C [ACh, acetylcholine] | 98.3 ± 0.6 (n = 10) % |  |  | 
10 | N[C@@H](CSN=O)C(=O)O [S-nitrosocysteine] |  |  | very rapid formation of intracellular SNO-Hb(FeII)O2 | SH groups of Hb S-nitrosylated (rat red blood cells; of the 4 available SH groups of rat Hb, by 60 min, equimolar to heme (5 mM), pH 7.4, 25° C.): 3

Source: patent US6916471B2, “Red blood cells loaded with S-nitrosothiol and uses therefor” (Duke University, priority 1995, dated 2005)
